Assay results: patent US4175125A, “Method for treating methicillin resistant staphylococcus aureus” (Eli Lilly and Company, priority 1978, dated 1979)
Converted amounts (≈) assume the structure as drawn. Where a name gives a salt, the structure may show the parent alone. Read-outs that look alike come from different tables or passages of the source.

Tests used:
[1] = system: methicillin-resistant Staphylococcus aureus; test: Gradient plate test (MIC) against methicillin-resistant Staphylococcus aureus; type: cell-based; conditions: Staphylococcus aureus, read-out: minimum inhibitory concentration (MIC)
Experimental: The method used is essentially that described by Bryson and Szybalski in 1952 (Science 116:45-46). The inoculum treatment method used for penicillin resistant Staphylococci was reported by Godzeski et al in Antimicrobial Agents and Chemotherapy, May, 1969, pp. 547-554.
A standard Falcon square plastic petri dish is used. A layer of agar (10 ml.) is poured into one of the square dishes, the dish tipped 5 mm. off the horizontal, and the agar layer allowed to harden in this position. This bottom layer of agar contains the antibiotic, the serum, and/or other material to be tested. The medium is Difco Penassay Agar containing 2 percent agar. We routinely used 4 ml. of human or horse serum for "serum-inactivation" testing. […] Therefore, serum is routinely added only to the bottom layer.
After the bottom, slanted layer of agar medium has hardened, the plate is placed flat and another 10 ml. of medium added and allowed to harden.
The inoculum of resistant Staphylococci, as described, is prepared by diluting the water suspension 1/50 in 0.25 percent agar in sterile water or saline. For Gram negative organisms, an overnight broth culture is diluted 1/50 in the 0.25 percent agar-water. This dilution is thoroughly shaken to evenly suspend the bacteria. To streak the plate, we use a 1 ml. pipet containing an aliquot of the final […] agar dilution. After a little practice, a smooth even stroke of inoculum can be laid down very rapidly. The trick is in the smoothness of the streak--it must be accomplished uniformly and quickly.
After 24 hours incubation at 35°-37° C. the plates are read by simply measuring the length of bacterial growth as a percentage of the entire streak distance which is then converted to the percent of antibiotic concentration in the plate.
Average values of duplicate measurements are calculated and the M.I.C.'s reported are average of 2 streaks on the plate and from 2 to 3 duplicate plates. Eight streaks can be easily placed on each plate. If sharp end points are not obtained, the middle concentration between the beginning of inhibition of the streak to the end of growth is measured. The concentration of the antibiotic under examination is varied from plate to plate in a series as follows: […]
This method of screening penicillins and cephalosporins is quite satisfactory. Control plates containing penicillin and staphcillin or prostaphlin, or other control antibiotic, are used daily for the resistant staphylococcal activity screen. The gradient plate method has shown differences between antibiotics that were not apparent by any other methods of screening. […] We believe that the gradient plate screen is more sensitive to small differences between related antibiotics than other methods and pictures of the plates can provide a permanent record. The method also lends itself readily to modification of specific purposes--e.g., cross gradients.
The compounds listed below are examples of compounds useful in the method of this invention. After the compound name there is given in parentheses, where tested, the minimum inhibitory concentrations (MIC) in micrograms per milliliter (μg/ml) for the compound in the above described gradient plate procedure test against methicillin-resistant Staphylococcus aureus, (in the absence of blood serum/in the presence of 20 percent blood serum).
and pharmaceutically acceptable salts thereof. The abbreviation "s.z." means skip zones.

[2] = system: Staphylococcus aureus cultures; test: Modified Bauer-Kirby Disc Susceptibility Test (Example 11); type: cell-based; parameters: zone of inhibition: dose or concentration left out as unconfirmed; conditions: for zone of inhibition: Staphylococcus aureus; for Change 37°-30°: 30 mg Disc
Experimental: This example exemplifies the antibiotic activity of 7-[2'-(3"-chloro-4"-fluorophenylthio)acetamido]cephalosporanic acid, a water soluble compound, described in Example 8, against various Staphylococcus aureus cultures, in a modified Bauer-Kirby Disc Susceptibility Test (Bauer, A. W., W. M. M. Kirby, J. C. Sherris, and M. Turck, 1966, Amer. J. Clin. Pathol. 45:493-496). In this test the cultures were incubated at both 37° C. or 30° C. […] 16, 1968, the heterogeneity of methicilllin-resistant S. aureus is manifested by incubation at 30° C.

[3] = in the presence of 20 percent blood serum
[4] = culture 3055 (penicillin sensitive), 30°, read-out: disc susceptibility (zone) at 30°
[5] = culture 3055 (penicillin sensitive), 37°, read-out: disc susceptibility (zone) at 37°
[6] = culture 3074 (methicillin sensitive, penicillinase producing), 30°, read-out: disc susceptibility (zone) at 30°
[7] = culture 3074 (methicillin sensitive, penicillinase producing), 37°, read-out: disc susceptibility (zone) at 37°
[8] = culture 3125 (methicillin resistant), 30°, read-out: disc susceptibility (zone) at 30°
[9] = culture 3125 (methicillin resistant), 37°, read-out: disc susceptibility (zone) at 37°
[10] = culture 3130 (methicillin resistant), 30°, read-out: disc susceptibility (zone) at 30°
[11] = culture 3130 (methicillin resistant), 37°, read-out: disc susceptibility (zone) at 37°
[12] = culture 3131 (methicillin resistant), 30°, read-out: disc susceptibility (zone) at 30°
[13] = culture 3131 (methicillin resistant), 37°, read-out: disc susceptibility (zone) at 37°
[14] = culture 3132 (methicillin resistant), 30°, read-out: disc susceptibility (zone) at 30°
[15] = culture 3132 (methicillin resistant), 37°, read-out: disc susceptibility (zone) at 37°
[16] = culture 3133 (methicillin resistant), 30°, read-out: disc susceptibility (zone) at 30°
[17] = culture 3133 (methicillin resistant), 37°, read-out: disc susceptibility (zone) at 37°
[18] = culture 3134 (methicillin resistant), 30°, read-out: disc susceptibility (zone) at 30°
[19] = culture 3134 (methicillin resistant), 37°, read-out: disc susceptibility (zone) at 37°
[20] = culture 3135 (methicillin resistant), 30°, read-out: disc susceptibility (zone) at 30°
[21] = culture 3135 (methicillin resistant), 37°, read-out: disc susceptibility (zone) at 37°
[22] = culture 3136 (methicillin resistant), 30°, read-out: disc susceptibility (zone) at 30°
[23] = culture 3136 (methicillin resistant), 37°, read-out: disc susceptibility (zone) at 37°
[24] = culture 3137 (methicillin resistant), 30°, read-out: disc susceptibility (zone) at 30°
[25] = culture 3137 (methicillin resistant), 37°, read-out: disc susceptibility (zone) at 37°
[26] = culture 3138 (methicillin resistant), 30°, read-out: disc susceptibility (zone) at 30°
[27] = culture 3138 (methicillin resistant), 37°, read-out: disc susceptibility (zone) at 37°
[28] = culture 3139 (methicillin resistant), 30°, read-out: disc susceptibility (zone) at 30°
[29] = culture 3139 (methicillin resistant), 37°, read-out: disc susceptibility (zone) at 37°
[30] = culture 3140 (methicillin resistant), 30°, read-out: disc susceptibility (zone) at 30°
[31] = culture 3140 (methicillin resistant), 37°, read-out: disc susceptibility (zone) at 37°
[32] = culture H232 (methicillin sensitive, penicillinase producing), 30°, read-out: disc susceptibility (zone) at 30°
[33] = culture H232 (methicillin sensitive, penicillinase producing), 37°, read-out: disc susceptibility (zone) at 37°

CC(=O)OCC1=C(C(=O)O)N2C(=O)C(NC(=O)CSc3ccc(Cl)c(Cl)c3)C2SC1 (stereo not shown) [Example 1, 7-(3,4-dichlorophenylthioacetamido)cephalosporanic acid]
MIC ([1]; in the absence of blood serum): 1 µg/mL (≈ 2.04 µM)
MIC [1, 3]: 1.7 µg/mL

CC(=O)OCC1=C(C(=O)O)N2C(=O)C(NC(=O)CSc3cc(Cl)ccc3Cl)C2SC1 (stereo not shown) [Example 2, 7-(2,5-Dichlorophenylthioacetamido)-cephalosporanic acid]
MIC ([1]; in the absence of blood serum): 0.8 µg/mL (≈ 1.63 µM)
MIC [1, 3]: 1 µg/mL

CC(=O)OCC1=C(C(=O)O)N2C(=O)C(NC(=O)CSc3cc(Cl)cc(Cl)c3)C2SC1 (stereo not shown) [Example 3, 7-(3,5-Dichlorophenylthioacetamido)-cephalosporanic acid]
MIC ([1]; in the absence of blood serum): 2 µg/mL (≈ 4.07 µM)
MIC [1, 3]: 8.7 µg/mL
zone of inhibition [2, 4]: > 35 mm
zone of inhibition [2, 5]: > 35 mm
zone of inhibition [2, 6]: 35 mm
zone of inhibition [2, 7]: 35 mm
zone of inhibition [2, 8]: 37 mm
zone of inhibition [2, 9]: 34.2 mm
zone of inhibition [2, 10]: 33.6 mm
zone of inhibition [2, 11]: 32 mm
zone of inhibition [2, 12]: 31.8 mm
zone of inhibition [2, 13]: 30.6 mm
zone of inhibition [2, 14]: 32.6 mm
zone of inhibition [2, 15]: 31 mm
zone of inhibition [2, 16]: 30.8 mm
zone of inhibition [2, 17]: 29 mm
zone of inhibition [2, 18]: 33 mm
zone of inhibition [2, 19]: 29.8 mm
zone of inhibition [2, 20]: 29.6 mm
zone of inhibition [2, 21]: 28.3 mm
zone of inhibition [2, 22]: 29.8 mm
zone of inhibition [2, 23]: 35 mm
zone of inhibition [2, 24]: 26 mm
zone of inhibition [2, 25]: 26.2 mm
zone of inhibition [2, 26]: 29.4 mm
zone of inhibition [2, 27]: 27 mm
zone of inhibition [2, 28]: 32.2 mm
zone of inhibition [2, 29]: 36 mm
zone of inhibition [2, 30]: 30.2 mm
zone of inhibition [2, 31]: 28.8 mm
zone of inhibition [2, 32]: 32.6 mm
zone of inhibition [2, 33]: 34.1 mm
Change 37°-30° ([2]; culture 3074): 0 mm
Change 37°-30° ([2]; culture 3125): +2.8 mm
Change 37°-30° ([2]; culture 3130): +1.6 mm
Change 37°-30° ([2]; culture 3131): +1.2 mm
Change 37°-30° ([2]; culture 3132): +1.6 mm
Change 37°-30° ([2]; culture 3133): +1.8 mm
Change 37°-30° ([2]; culture 3134): +3.2 mm
Change 37°-30° ([2]; culture 3135): +1.3 mm
Change 37°-30° ([2]; culture 3136): +5.2 mm
Change 37°-30° ([2]; culture 3137): -0.2 mm
Change 37°-30° ([2]; culture 3138): +2.4 mm
Change 37°-30° ([2]; culture 3139): -3.8 mm
Change 37°-30° ([2]; culture 3140): +1.4 mm
Change 37°-30° ([2]; culture H232): -1.5 mm

CC(=O)OCC1=C(C(=O)O)N2C(=O)C(NC(=O)CSc3ccc(F)c(Cl)c3)C2SC1 (stereo not shown) [Example 8, 7-(3'-chloro-4-fluorophenylthioacetamido)cephalosporanic acid, sodium salt]
MIC ([1]; in the absence of blood serum): 9.3 µg/mL
MIC [1, 3]: 12.2 µg/mL
zone of inhibition [2, 4]: > 35 mm
zone of inhibition [2, 5]: > 35 mm
zone of inhibition [2, 6]: 36 mm
zone of inhibition [2, 7]: 36 mm
zone of inhibition [2, 8]: 36 mm
zone of inhibition [2, 9]: 33.8 mm
zone of inhibition [2, 10]: 31 mm
zone of inhibition [2, 11]: 33.2 mm
zone of inhibition [2, 12]: 29 mm
zone of inhibition [2, 13]: 26.6 mm
zone of inhibition [2, 14]: 28 mm
zone of inhibition [2, 15]: 29.4 mm
zone of inhibition [2, 16]: 24.8 mm
zone of inhibition [2, 17]: 27.6 mm
zone of inhibition [2, 18]: 27.8 mm
zone of inhibition [2, 19]: 28 mm
zone of inhibition [2, 20]: 26.2 mm
zone of inhibition [2, 21]: 28.2 mm
zone of inhibition [2, 22]: 31 mm
zone of inhibition [2, 23]: 35 mm
zone of inhibition [2, 24]: 22.1 mm
zone of inhibition [2, 25]: 24.4 mm
zone of inhibition [2, 26]: 25.2 mm
zone of inhibition [2, 27]: 25.6 mm
zone of inhibition [2, 28]: 31.6 mm
zone of inhibition [2, 29]: 34 mm
zone of inhibition [2, 30]: 26.4 mm
zone of inhibition [2, 31]: 28.4 mm
zone of inhibition [2, 32]: 34.3 mm
zone of inhibition [2, 33]: 33.4 mm
Change 37°-30° ([2]; culture 3074): 0 mm
Change 37°-30° ([2]; culture 3125): +2.2 mm
Change 37°-30° ([2]; culture 3130): -2.2 mm
Change 37°-30° ([2]; culture 3131): +2.4 mm
Change 37°-30° ([2]; culture 3132): -1.4 mm
Change 37°-30° ([2]; culture 3133): -2.8 mm
Change 37°-30° ([2]; culture 3134): -0.2 mm
Change 37°-30° ([2]; culture 3135): -2.0 mm
Change 37°-30° ([2]; culture 3136): -4.0 mm
Change 37°-30° ([2]; culture 3137): -2.3 mm
Change 37°-30° ([2]; culture 3138): -0.4 mm
Change 37°-30° ([2]; culture 3139): -2.4 mm
Change 37°-30° ([2]; culture 3140): -2.0 mm
Change 37°-30° ([2]; culture H232): +0.9 mm
effectiveness vs cephalothin in disc susceptibility test ([2]; incubation at 37° C. or 30° C.): more effective than cephalothin
